Data reported in patent US20030055072A1, “Methods of inhibiting Pin1-associated states using a fredericamycin a compound” (priority 2000, published 2003).
Where two headings read alike, the source gives them in different places.

Columns and labels:
DU-145 prostate tumor = assay: tumor growth in scid mouse human prostate tumor model; format: in vivo, scid mice
glioblastoma cells = details: Misra et al. 1982; cited from earlier work
hPin1 = hPin1 (Homo sapiens, UniProt Q13526); assay: protease-coupled PPIase assay, hPin1; format: biochemical
hPin1, sequence (Q13526 whole entry): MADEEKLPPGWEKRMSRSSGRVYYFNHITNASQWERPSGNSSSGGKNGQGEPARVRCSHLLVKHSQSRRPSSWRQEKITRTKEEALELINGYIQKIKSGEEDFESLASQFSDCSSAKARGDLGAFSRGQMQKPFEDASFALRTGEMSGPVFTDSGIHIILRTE
Description: PPIase activity measurements were performed by the protease-coupled PPIase assay developed by Fischer et al. (1984). For hPin1 activity measurements, bovine trypsin (final concentration 0.21 mg/mL, Sigma) was used as an isomer-specific protease and Ac-Ala-Ala-Ser(P)-Pro-Arg-pNA (Jerini, Germany) as a substrate. PPIase activity of hFKBP12 (Sigma) and hCyp18 (Sigma) was determined with the peptide substrate Suc-Ala-Phe-Pro-Phe-pNA (Bachem) and the protease α-chymotrypsin (final concentration 0.41 mg/mL, Sigma). The test was performed by observing the released 4-nitroanilide at 390 nm with a Hewlett-Packard 8453 UV-vis spectrophotometer at 10° C. The total reaction volume was adjusted to 1.23 mL by mixing appropriate volumes of 35 mM HEPES (pH 7.8) with enzyme and effector solutions. Fredericamycin A (BioLeads, Germany) was freshly diluted from a 1 mg/mL stock solution in DMSO. If not otherwise indicated, fredericamycin A (0-6 μM) was pre-incubated with the enzyme for 5 min (10° C.). Prior to the start of reaction by addition of the respective protease, 2 μL of the peptide substrate stock solution (10 mg/mL in DMSO) were added. The amount of organic solvent was kept constant within each experiment (<0.1%). The pseudo-first-order rate constant kobs for cis/trans isomerization in the presence of PPlase and the first-order rate constant k0 of the unkatalyzed cis/trans isomerization were calculated using the Kinetics Software of Hewlett-Packard as well as SigmaPlot2000 for Windows 6.0 (SPSS). The Ki value for inhibition of hPin1 PPIase activity by fredericamycin A at constant concentrations of substrate ([S0]<<KM) was calculated by fitting the data according to the equation for a competitive “tight-binding” inhibitor using SigmaPlot2000.
FIG. 1: Ki value for hPin1 PPlase activity inhibition by fredericamycin A. PPIase activity measurements were performed as described in Materials and Methods. 6.0 nM of Pin1 were pre-incubated with 0-4.8 μM fredericamycin A in 35 mM HEPES (pH 7.8) at […] for 5 min. Ac-Ala-Ala-Ser(P)-Pro-Arg-pNA (21.9 μM) was used as a substrate. Reactions were started by addition of trypsin.
FIG. 2: Time dependency of Pin1 PPIase activity inhibition by fredericamycin A. PPIase activity measurements were performed as described in Materials and Methods. 6.0 nM hPin1 was incubated for 0, 5, 10, 15, 20, 25 and 30 min with 0 (●) and 1 μM (♦) fredericamycin, respectively.
FIG. 3: Reversibility of the interaction between hPin1 and fredericamycin A. 209 nM of hPin1 were incubated with 0 (▪) and 0.16 (□) […] fredericamycin A and the remaining PPIase activity of hPin1 was measured before and after micro-separation through a semipermeable membrane using the protease-coupled PPlase assay according to Materials and Methods.

hCyp18 = target: T1, hCyp18 (Homo sapiens, UniProt P62937); assay: protease-coupled PPIase assay, hCyp18; format: biochemical
T1 construct: purchased Sigma
T1 sequence (P62937 whole entry): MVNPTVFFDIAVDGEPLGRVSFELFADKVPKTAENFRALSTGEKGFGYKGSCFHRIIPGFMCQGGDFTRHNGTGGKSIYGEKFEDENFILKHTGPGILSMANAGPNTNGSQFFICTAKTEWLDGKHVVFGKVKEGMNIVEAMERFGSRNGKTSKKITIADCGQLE
Description: (§1) PPIase activity measurements were performed by the protease-coupled PPIase assay developed by Fischer et al. (1984). For hPin1 activity measurements, bovine trypsin (final concentration 0.21 mg/mL, Sigma) was used as an isomer-specific protease and Ac-Ala-Ala-Ser(P)-Pro-Arg-pNA (Jerini, Germany) as a substrate. PPIase activity of hFKBP12 (Sigma) and hCyp18 (Sigma) was determined with the peptide substrate Suc-Ala-Phe-Pro-Phe-pNA (Bachem) and the protease α-chymotrypsin (final concentration 0.41 mg/mL, Sigma). The test was performed by observing the released 4-nitroanilide at 390 nm with a Hewlett-Packard 8453 UV-vis spectrophotometer at 10° C. The total reaction volume was adjusted to 1.23 mL by mixing appropriate volumes of 35 mM HEPES (pH 7.8) with enzyme and effector solutions. […] The pseudo-first-order rate constant kobs for cis/trans isomerization in the presence of PPlase and the first-order rate constant k0 of the unkatalyzed cis/trans isomerization were calculated using the Kinetics Software of Hewlett-Packard as well as SigmaPlot2000 for Windows 6.0 (SPSS). The Ki value for inhibition of hPin1 PPIase activity by fredericamycin A at constant concentrations of substrate ([S0]<<KM) was calculated by fitting the data according to the equation for a competitive “tight-binding” inhibitor using SigmaPlot2000.

hFKBP12 = target: T2, hFKBP12 (Homo sapiens, UniProt P62942); assay: protease-coupled PPIase assay, hFKBP12; format: biochemical
T2 construct: purchased Sigma
T2 sequence (P62942 whole entry): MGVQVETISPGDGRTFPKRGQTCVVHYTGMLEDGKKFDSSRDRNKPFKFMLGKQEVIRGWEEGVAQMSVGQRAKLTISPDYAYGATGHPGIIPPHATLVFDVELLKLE
Description: as §1

[1] = Day 7 (before dosing), group 0.34 mg/kg ip Days 16-20
[2] = Day 12 (before dosing), group 0.34 mg/kg ip Days 16-20
[3] = Day 18, 0.34 mg/kg ip Days 16-20
[4] = Day 25, 0.34 mg/kg ip Days 16-20
[5] = Day 32, 0.34 mg/kg ip Days 16-20
[6] = Day 14 (before dosing), group 0.34 mg/kg ip Days 16-20
[7] = Day 21, 0.34 mg/kg ip Days 16-20
[8] = Day 28, 0.34 mg/kg ip Days 16-20

O=C1c2c(O)ccc(O)c2C(=O)c2c(NCCNCCO)ccc(NCCNCCO)c21 [Mitox, reference compound]
mice that died after 32 days (0.34 mg/kg ip Days 16-20, ten mice per group): None | Mean Mouse Weight [1]: 27.98 g | Mean Mouse Weight [2]: 28.32 g | Mean Mouse Weight [3]: 27.39 g | Mean Mouse Weight [4]: 27.38 g | Mean Mouse Weight [5]: 28.04 g | Mean Mouse Weight (Day −6 (before dosing), group 0.34 mg/kg ip Days 16-20): 26.36 g | Tumor Volume (DU-145 prostate tumor; [1]): 0.02 cm^3 | Tumor Volume (DU-145 prostate tumor; [2]): 0.05 cm^3 | Tumor Volume (DU-145 prostate tumor; [6]): 0.09 cm^3 | Tumor Volume (DU-145 prostate tumor; [3]): 0.19 cm^3 | Tumor Volume (DU-145 prostate tumor; [7]): 0.22 cm^3 | Tumor Volume (DU-145 prostate tumor; [4]): 0.37 cm^3 | Tumor Volume (DU-145 prostate tumor; [8]): 0.53 cm^3 | Tumor Volume (DU-145 prostate tumor; [5]): 0.72 cm^3

C/C=C/C=C/c1cc2cc3c(c(O)c2c(=O)[nH]1)C1(CC3)C(=O)c2c(O)c3c(c(O)c2C1=O)C(=O)C(OC)=CC3=O (stereo not drawn) [fredericamycin A]
anti-tumor activity against glioblastoma cells (glioblastoma cells): comparable to 1,3-bis(2-chloroethyl)-1-nitrosourea (BCNU) | Ki (hPin1; 6.0 nM Pin1, 5 min pre-incubation, 35 mM HEPES pH 7.8, substrate Ac-Ala-Ala-Ser(P)-Pro-Arg-pNA, competitive tight-binding fit, read-out: Ki value for inhibition of the PPIase activity of hPin1): 820 ± 608 nM | time dependency of inhibition of hPin1 PPIase activity (hPin1; 6.0 nM hPin1, 1 μM inhibitor, 0-30 min incubation): no time dependency of inhibition within 30 min | remaining hPin1 PPIase activity (hPin1; 209 nM hPin1, 0.16 mM inhibitor, before micro-concentration): 23% | hPin1 reactivation after micro-concentration through semi-permeable membrane (reversibility) (hPin1; 209 nM hPin1, 0.16 mM inhibitor, buffer replaced 3 times, compared to inhibitor-free enzyme control): 97.5% | preference for the parvulin hPin1 over the other tested PPIases (hPin1; hPin1 versus hCyp18 and hFKBP12): 6- to 7 fold | IC50 (hPin1; protease-coupled PPIase assay): 890 ± 50 nM | death of mice (0.67 mg/kg ip from Day 16, ten mice per group): All of the mice receiving 0.67 mg/kg of Fred A died by about Day 17 | number of mice that lived until Day 32 (mouse, in vivo): 2 | IC50 (hCyp18): 5100 ± 2000 nM | Tumor Volume (DU-145 prostate tumor; [1]): 0.02 cm^3 | Tumor Volume (DU-145 prostate tumor; Day 7 (before dosing), group 0.67 mg/kg ip Days 16-20): 0.04 cm^3 | Tumor Volume (DU-145 prostate tumor; [2]): 0.05 cm^3 | Tumor Volume (DU-145 prostate tumor; Day 12 (before dosing), group 0.67 mg/kg ip Days 16-20): 0.04 cm^3 | Tumor Volume (DU-145 prostate tumor; [6]): 0.05 cm^3 | Tumor Volume (DU-145 prostate tumor; Day 14 (before dosing), group 0.67 mg/kg ip Days 16-20): 0.07 cm^3 | Tumor Volume (DU-145 prostate tumor; [3]): 0.03 cm^3 | Tumor Volume (DU-145 prostate tumor; Day 18, 0.67 mg/kg ip Days 16-20): 0.05 cm^3 | Tumor Volume (DU-145 prostate tumor; [7]): 0.11 cm^3 | Tumor Volume (DU-145 prostate tumor; [4]): 0.11 cm^3 | Tumor Volume (DU-145 prostate tumor; [8]): 0.22 cm^3 | Tumor Volume (DU-145 prostate tumor; [5]): 0.35 cm^3 | reduction of mean tumor volume as compared to the DMSO or Mitox controls (DU-145 prostate tumor; FIG. 4, DU-145 tumor bearing scid mice, ip Days 16-20): 50% | IC50 (hFKBP12): 6200 ± 1700 nM
